According to ChEMBL document CHEMBL3991601, “The target landscape of clinical kinase drugs” (Science, 2017):
Active and inactive are the calls of the source. Rule as the data show it, for most assays here: actives have a measured Kd and inactives only a lower limit.

Tests used:
[1] = molecular target: T1, Receptor-type tyrosine-protein kinase FLT3 (Homo sapiens, UniProt P36888)
T1 sequence (P36888 whole entry): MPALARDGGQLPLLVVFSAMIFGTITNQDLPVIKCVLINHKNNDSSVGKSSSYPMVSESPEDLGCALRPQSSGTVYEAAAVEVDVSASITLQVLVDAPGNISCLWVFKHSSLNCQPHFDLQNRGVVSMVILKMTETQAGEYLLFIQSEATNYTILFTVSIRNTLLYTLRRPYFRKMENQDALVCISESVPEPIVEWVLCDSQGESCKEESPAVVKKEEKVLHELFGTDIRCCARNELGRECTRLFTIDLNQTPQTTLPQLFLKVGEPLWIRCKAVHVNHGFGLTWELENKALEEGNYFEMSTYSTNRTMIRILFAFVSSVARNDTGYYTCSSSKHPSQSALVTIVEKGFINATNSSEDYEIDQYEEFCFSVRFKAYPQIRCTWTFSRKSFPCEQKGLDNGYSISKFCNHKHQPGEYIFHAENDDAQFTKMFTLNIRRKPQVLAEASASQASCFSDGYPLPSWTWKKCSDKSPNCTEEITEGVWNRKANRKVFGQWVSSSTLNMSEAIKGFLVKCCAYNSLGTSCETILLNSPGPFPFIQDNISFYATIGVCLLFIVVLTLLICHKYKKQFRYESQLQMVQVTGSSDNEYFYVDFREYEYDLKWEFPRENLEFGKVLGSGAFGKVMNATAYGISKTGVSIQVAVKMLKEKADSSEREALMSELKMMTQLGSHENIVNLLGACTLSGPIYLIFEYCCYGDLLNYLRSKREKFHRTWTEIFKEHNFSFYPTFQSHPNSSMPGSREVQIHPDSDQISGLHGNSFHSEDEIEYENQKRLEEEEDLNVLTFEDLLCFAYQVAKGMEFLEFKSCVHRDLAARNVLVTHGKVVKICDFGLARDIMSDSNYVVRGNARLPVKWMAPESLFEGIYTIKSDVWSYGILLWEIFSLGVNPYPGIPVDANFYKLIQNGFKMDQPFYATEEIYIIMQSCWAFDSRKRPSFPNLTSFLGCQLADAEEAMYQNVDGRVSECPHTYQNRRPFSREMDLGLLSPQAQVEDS

[2] = molecular target: Mitogen-activated protein kinase kinase kinase kinase 1 (Homo sapiens, UniProt Q92918)
[3] = molecular target: T2, Mitogen-activated protein kinase kinase kinase kinase 3 (Homo sapiens, UniProt Q8IVH8)
T2 sequence (Q8IVH8 whole entry): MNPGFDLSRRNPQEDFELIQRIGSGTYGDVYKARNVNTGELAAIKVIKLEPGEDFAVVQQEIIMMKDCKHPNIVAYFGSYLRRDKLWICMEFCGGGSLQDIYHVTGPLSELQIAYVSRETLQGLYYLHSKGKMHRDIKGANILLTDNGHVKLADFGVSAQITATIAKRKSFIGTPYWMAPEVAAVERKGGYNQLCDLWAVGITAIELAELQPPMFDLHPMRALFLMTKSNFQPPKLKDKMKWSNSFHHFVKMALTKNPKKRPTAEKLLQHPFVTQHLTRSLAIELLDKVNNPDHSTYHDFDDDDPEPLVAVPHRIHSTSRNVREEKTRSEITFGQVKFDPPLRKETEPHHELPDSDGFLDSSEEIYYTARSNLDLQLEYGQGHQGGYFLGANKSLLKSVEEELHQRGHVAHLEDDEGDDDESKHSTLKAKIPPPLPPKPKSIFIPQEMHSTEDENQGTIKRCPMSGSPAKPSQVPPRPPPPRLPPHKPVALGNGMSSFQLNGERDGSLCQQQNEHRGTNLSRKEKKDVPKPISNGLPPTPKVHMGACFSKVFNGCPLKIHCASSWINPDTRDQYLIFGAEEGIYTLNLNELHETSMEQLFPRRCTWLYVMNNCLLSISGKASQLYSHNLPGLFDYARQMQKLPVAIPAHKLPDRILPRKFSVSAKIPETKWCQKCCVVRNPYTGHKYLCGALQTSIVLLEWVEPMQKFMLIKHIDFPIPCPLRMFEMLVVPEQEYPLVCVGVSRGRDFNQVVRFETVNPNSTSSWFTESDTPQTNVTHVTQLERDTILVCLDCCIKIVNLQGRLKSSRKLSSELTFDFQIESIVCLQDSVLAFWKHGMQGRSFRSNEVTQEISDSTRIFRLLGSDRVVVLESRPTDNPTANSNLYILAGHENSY

[4] = molecular target: Maternal embryonic leucine zipper kinase (Homo sapiens, UniProt Q14680)
[5] = molecular target: T3, Serine/threonine-protein kinase Nek9 (Homo sapiens, UniProt Q8TD19)
T3 sequence (Q8TD19 whole entry): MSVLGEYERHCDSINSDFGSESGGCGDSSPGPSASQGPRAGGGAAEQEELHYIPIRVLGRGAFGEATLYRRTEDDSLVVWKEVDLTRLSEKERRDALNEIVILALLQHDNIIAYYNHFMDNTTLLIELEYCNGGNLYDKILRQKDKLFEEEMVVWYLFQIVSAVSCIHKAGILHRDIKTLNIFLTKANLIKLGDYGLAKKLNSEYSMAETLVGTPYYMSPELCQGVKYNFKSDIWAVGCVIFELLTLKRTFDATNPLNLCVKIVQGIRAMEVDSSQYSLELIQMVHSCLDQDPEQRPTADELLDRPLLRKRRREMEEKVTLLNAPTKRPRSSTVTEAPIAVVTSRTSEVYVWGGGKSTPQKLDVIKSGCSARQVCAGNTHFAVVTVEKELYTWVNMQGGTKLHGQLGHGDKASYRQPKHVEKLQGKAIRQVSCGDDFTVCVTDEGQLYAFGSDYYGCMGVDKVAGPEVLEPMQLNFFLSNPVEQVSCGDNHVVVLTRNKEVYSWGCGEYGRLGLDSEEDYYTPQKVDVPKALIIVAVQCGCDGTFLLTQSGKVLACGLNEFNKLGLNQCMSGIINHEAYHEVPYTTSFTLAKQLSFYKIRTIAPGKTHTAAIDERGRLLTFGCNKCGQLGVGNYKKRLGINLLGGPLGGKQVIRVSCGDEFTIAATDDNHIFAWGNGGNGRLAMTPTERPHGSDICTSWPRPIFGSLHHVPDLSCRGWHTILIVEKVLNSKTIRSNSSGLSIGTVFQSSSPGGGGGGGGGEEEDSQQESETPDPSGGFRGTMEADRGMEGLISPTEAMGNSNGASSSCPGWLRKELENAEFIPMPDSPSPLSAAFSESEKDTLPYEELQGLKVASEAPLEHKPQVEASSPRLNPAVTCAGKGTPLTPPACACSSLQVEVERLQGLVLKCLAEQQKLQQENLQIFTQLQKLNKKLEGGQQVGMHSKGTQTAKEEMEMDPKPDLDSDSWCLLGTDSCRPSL

[6] = molecular target: Structural maintenance of chromosomes protein 2 (Homo sapiens, UniProt O95347)
Also: in the data inactive means no Kd found up to 30 µM.

Chain of Structural maintenance of chromosomes protein 2 (O95347 whole entry): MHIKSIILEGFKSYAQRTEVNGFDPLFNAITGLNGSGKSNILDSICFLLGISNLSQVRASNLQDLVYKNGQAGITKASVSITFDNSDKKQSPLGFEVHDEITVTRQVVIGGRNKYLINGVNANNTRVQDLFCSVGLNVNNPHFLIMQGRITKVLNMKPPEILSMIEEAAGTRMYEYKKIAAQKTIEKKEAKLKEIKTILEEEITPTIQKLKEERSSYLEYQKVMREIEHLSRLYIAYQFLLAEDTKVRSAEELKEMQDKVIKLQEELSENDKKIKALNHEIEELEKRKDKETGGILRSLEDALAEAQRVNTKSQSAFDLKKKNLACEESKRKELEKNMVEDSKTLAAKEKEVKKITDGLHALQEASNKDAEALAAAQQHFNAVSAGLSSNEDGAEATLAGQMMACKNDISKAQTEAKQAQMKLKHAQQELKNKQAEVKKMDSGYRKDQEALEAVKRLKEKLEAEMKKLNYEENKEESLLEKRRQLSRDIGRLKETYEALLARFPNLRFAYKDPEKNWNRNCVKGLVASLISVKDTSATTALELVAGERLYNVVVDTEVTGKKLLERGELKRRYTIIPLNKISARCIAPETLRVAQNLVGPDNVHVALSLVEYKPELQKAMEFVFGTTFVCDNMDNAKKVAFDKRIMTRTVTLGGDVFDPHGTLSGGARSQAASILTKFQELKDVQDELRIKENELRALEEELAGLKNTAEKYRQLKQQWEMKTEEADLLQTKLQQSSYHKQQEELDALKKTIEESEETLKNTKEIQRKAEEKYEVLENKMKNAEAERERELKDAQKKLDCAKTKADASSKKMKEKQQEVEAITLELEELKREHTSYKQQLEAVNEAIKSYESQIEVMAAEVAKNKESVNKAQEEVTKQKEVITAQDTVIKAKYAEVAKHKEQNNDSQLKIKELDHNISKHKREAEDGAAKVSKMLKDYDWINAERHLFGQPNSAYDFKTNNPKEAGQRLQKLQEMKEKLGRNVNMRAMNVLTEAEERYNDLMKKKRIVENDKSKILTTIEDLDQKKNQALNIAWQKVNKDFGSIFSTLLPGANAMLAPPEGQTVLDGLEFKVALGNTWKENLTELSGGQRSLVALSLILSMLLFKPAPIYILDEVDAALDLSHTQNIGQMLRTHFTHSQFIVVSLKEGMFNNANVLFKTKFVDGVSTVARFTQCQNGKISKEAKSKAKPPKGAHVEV
Chain of Maternal embryonic leucine zipper kinase (Q14680 whole entry): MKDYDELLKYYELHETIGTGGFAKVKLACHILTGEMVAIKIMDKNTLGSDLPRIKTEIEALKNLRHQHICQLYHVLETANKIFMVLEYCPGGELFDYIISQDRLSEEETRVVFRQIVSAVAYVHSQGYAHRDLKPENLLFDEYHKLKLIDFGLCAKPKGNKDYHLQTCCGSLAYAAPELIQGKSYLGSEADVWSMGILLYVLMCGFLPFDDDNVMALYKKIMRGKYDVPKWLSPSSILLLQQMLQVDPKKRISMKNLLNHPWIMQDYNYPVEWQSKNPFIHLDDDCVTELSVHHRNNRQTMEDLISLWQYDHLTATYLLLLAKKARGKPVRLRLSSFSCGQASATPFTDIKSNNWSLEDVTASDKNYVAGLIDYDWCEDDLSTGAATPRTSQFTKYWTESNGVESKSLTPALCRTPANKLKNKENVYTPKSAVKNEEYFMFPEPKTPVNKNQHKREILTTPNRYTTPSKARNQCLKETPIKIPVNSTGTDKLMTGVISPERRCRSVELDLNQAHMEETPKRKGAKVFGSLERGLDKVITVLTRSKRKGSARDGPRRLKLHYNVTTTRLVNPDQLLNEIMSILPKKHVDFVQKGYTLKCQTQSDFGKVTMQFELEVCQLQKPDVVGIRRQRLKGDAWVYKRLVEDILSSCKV
Chain of Mitogen-activated protein kinase kinase kinase kinase 1 (Q92918 whole entry): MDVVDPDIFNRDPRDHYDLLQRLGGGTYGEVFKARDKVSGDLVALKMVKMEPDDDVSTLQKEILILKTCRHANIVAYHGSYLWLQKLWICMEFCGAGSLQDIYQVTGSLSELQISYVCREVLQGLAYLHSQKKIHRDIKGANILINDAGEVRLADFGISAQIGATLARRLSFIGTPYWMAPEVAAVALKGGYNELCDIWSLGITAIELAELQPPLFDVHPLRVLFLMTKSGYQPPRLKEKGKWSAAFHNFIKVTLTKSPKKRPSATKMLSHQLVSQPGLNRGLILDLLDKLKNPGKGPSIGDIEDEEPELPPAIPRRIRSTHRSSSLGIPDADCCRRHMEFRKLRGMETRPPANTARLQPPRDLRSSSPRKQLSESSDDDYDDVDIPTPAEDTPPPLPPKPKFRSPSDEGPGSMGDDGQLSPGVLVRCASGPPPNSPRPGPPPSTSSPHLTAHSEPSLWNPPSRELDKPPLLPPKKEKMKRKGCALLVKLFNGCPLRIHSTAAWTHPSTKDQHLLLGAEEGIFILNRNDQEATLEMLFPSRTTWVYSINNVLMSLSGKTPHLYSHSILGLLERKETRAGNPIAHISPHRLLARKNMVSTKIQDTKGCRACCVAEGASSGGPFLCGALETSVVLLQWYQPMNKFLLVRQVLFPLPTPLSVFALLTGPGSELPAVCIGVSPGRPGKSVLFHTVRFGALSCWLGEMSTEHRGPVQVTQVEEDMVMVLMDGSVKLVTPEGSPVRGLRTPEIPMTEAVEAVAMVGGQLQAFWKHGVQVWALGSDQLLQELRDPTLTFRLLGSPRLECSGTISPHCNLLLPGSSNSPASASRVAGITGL

CCN1CCN(Cc2ccc(-c3cc4c(N[C@H](C)c5ccccc5)ncnc4[nH]3)cc2)CC1 [AEE-788]
Kd [1]: > 30 µM (inactive) | Kd [2]: > 30 µM (inactive) | Kd [3]: > 30 µM (inactive) | Kd [4]: > 30 µM (inactive) | Kd [5]: > 30 µM (inactive) | Kd [6]: > 30 µM (inactive)

Cn1ncc(Cl)c1-c1cc(C(=O)N[C@H](CN)Cc2cccc(F)c2)sc1Cl [AFURESERTIB]
Kd [1]: > 30 µM (inactive) | Kd [2]: > 30 µM (inactive) | Kd [3]: > 30 µM (inactive) | Kd [4]: > 30 µM (inactive) | Kd [5]: > 30 µM (inactive) | Kd [6]: > 30 µM (inactive)

COc1cc(N2CCC(N3CCN(C)CC3)CC2)ccc1Nc1ncnc(Nc2ccccc2S(=O)(=O)C(C)C)n1 [ASP-3026]
Kd [1]: 0.627 µM (active) | Kd [2]: > 30 µM (inactive) | Kd [3]: > 30 µM (inactive) | Kd [4]: > 30 µM (inactive) | Kd [5]: > 30 µM (inactive) | Kd [6]: > 30 µM (inactive)

COc1cc(CCc2cc(NC(=O)c3ccc(N4C[C@@H](C)N[C@@H](C)C4)cc3)n[nH]2)cc(OC)c1 [AZD-4547]
Kd [1]: > 30 µM (inactive) | Kd [2]: 0.354 µM (active) | Kd [3]: 0.049 µM (active) | Kd [4]: > 30 µM (inactive) | Kd [5]: > 30 µM (inactive) | Kd [6]: > 30 µM (inactive)

Cc1cc([C@@H](C)Nc2ccccc2C(=O)O)c2nc(N3CCOCC3)cc(=O)n2c1 [AZD-6482]
Kd [1]: > 30 µM (inactive) | Kd [2]: > 30 µM (inactive) | Kd [3]: > 30 µM (inactive) | Kd [4]: > 30 µM (inactive) | Kd [5]: > 30 µM (inactive) | Kd [6]: > 30 µM (inactive)

COc1ccc(-c2ccc3c(N4CCOC[C@@H]4C)nc(N4CCOC[C@@H]4C)nc3n2)cc1CO [AZD-8055]
Kd [1]: > 30 µM (inactive) | Kd [2]: > 30 µM (inactive) | Kd [3]: > 30 µM (inactive) | Kd [4]: > 30 µM (inactive) | Kd [5]: > 30 µM (inactive) | Kd [6]: > 30 µM (inactive)

C[C@@H](Nc1cc(F)cc(F)c1)c1cc(C(=O)N(C)C)cc2c(=O)cc(N3CCOCC3)oc12 [AZD-8186]
Kd [1]: > 30 µM (inactive) | Kd [2]: > 30 µM (inactive) | Kd [3]: > 30 µM (inactive) | Kd [4]: > 30 µM (inactive) | Kd [5]: > 30 µM (inactive) | Kd [6]: > 30 µM (inactive)

Cc1ccc(NC(=O)c2ccc(CN3CC[C@H](N(C)C)C3)c(C(F)(F)F)c2)cc1Nc1nccc(-c2cncnc2)n1 [BAFETINIB]
Kd [1]: > 30 µM (inactive) | Kd [2]: > 30 µM (inactive) | Kd [3]: > 30 µM (inactive) | Kd [4]: > 30 µM (inactive) | Kd [5]: > 30 µM (inactive) | Kd [6]: > 30 µM (inactive)

CCS(=O)(=O)N1CC(CC#N)(n2cc(-c3ncnc4[nH]ccc34)cn2)C1 [BARICITINIB]
Kd [1]: > 30 µM (inactive) | Kd [2]: > 30 µM (inactive) | Kd [3]: > 30 µM (inactive) | Kd [4]: > 30 µM (inactive) | Kd [5]: > 30 µM (inactive) | Kd [6]: > 30 µM (inactive)

Cc1cc2c(F)c(Oc3ncnn4cc(OC[C@@H](C)OC(=O)[C@H](C)N)c(C)c34)ccc2[nH]1 [BRIVANIB ALANINATE]
Kd [1]: > 30 µM (inactive) | Kd [2]: > 30 µM (inactive) | Kd [3]: > 30 µM (inactive) | Kd [4]: > 30 µM (inactive) | Kd [5]: > 30 µM (inactive) | Kd [6]: > 30 µM (inactive)

CNC(=O)c1ccc(-c2cnc3ncc(Cc4ccc5ncccc5c4)n3n2)cc1F [CAPMATINIB]
Kd [1]: > 30 µM (inactive) | Kd [2]: > 30 µM (inactive) | Kd [3]: > 30 µM (inactive) | Kd [4]: > 30 µM (inactive) | Kd [5]: > 30 µM (inactive) | Kd [6]: > 30 µM (inactive)

O=C(c1ccc(F)c(F)c1Nc1ccc(I)cc1F)N1CC(O)([C@@H]2CCCCN2)C1 [COBIMETINIB]
Kd [1]: > 30 µM (inactive) | Kd [2]: > 30 µM (inactive) | Kd [3]: > 30 µM (inactive) | Kd [4]: > 30 µM (inactive) | Kd [5]: > 30 µM (inactive) | Kd [6]: > 30 µM (inactive)

CCc1cnn2c(NCc3ccc[n+]([O-])c3)cc(N3CCCC[C@H]3CCO)nc12 [DINACICLIB]
Kd [1]: > 30 µM (inactive) | Kd [2]: > 30 µM (inactive) | Kd [3]: > 30 µM (inactive) | Kd [4]: > 30 µM (inactive) | Kd [5]: > 30 µM (inactive) | Kd [6]: > 30 µM (inactive)

COC(=O)N[C@@H](C)CNc1nccc(-c2cn(C(C)C)nc2-c2cc(Cl)cc(NS(C)(=O)=O)c2F)n1 [ENCORAFENIB]
Kd [1]: > 30 µM (inactive) | Kd [2]: > 30 µM (inactive) | Kd [3]: > 30 µM (inactive) | Kd [4]: > 30 µM (inactive) | Kd [5]: > 30 µM (inactive) | Kd [6]: > 30 µM (inactive)

CO[C@H]1C[C@@H]2CC[C@@H](C)[C@@](O)(O2)C(=O)C(=O)N2CCCC[C@H]2C(=O)O[C@H]([C@H](C)C[C@@H]2CC[C@@H](OCCO)[C@H](OC)C2)CC(=O)[C@H](C)/C=C(\C)[C@@H](O)[C@@H](OC)C(=O)[C@H](C)C[C@H](C)/C=C/C=C/C=C/1C [EVEROLIMUS]
Kd [1]: > 30 µM (inactive) | Kd [2]: > 30 µM (inactive) | Kd [3]: > 30 µM (inactive) | Kd [4]: > 30 µM (inactive) | Kd [5]: > 30 µM (inactive) | Kd [6]: > 30 µM (inactive)

COCCNCc1ccc(-c2cc3nccc(Oc4ccc(NC(=S)NC(=O)Cc5ccc(F)cc5)cc4F)c3s2)nc1 [GLESATINIB]
Kd [1]: 0.179 µM (active) | Kd [2]: > 30 µM (inactive) | Kd [3]: > 30 µM (inactive) | Kd [4]: > 30 µM (inactive) | Kd [5]: > 30 µM (inactive) | Kd [6]: > 30 µM (inactive)

O=C1NC(=O)/C(=C/c2ccc3nccc(-c4ccncc4)c3c2)S1 [GSK-1059615]
Kd [1]: > 30 µM (inactive) | Kd [2]: > 30 µM (inactive) | Kd [3]: > 30 µM (inactive) | Kd [4]: > 30 µM (inactive) | Kd [5]: > 30 µM (inactive) | Kd [6]: > 30 µM (inactive)

CC[C@H](Nc1ncnc2[nH]cnc12)c1nc2cccc(F)c2c(=O)n1-c1ccccc1 [IDELALISIB]
Kd [1]: > 30 µM (inactive) | Kd [2]: > 30 µM (inactive) | Kd [3]: > 30 µM (inactive) | Kd [4]: > 30 µM (inactive) | Kd [5]: > 30 µM (inactive) | Kd [6]: > 30 µM (inactive)
